The structures appear in SMILES notation.

The subject of test [1] is CD4+IL-17+ T cells. The test is described as follows: FACS of lymph node cells of EAE mice for IL-17 and CD4 (Th17 response). The test is classed as in vivo, female SJL/J mice. Conditions: 0.2 and 0.4 mg/kg body wt/d, nebulization from 9 dpt, 16 dpt. The procedure:
FIG. 4A-4B. Nebulization of low-dose aspirin suppresses the Th17 response in vivo in mice with adoptive transfer EAE. Lymph node cells of control, EAE (16 dpt) and low doses of aspirin-treated EAE mice (16 dpt receiving 0.2 and 0.4 mg/kg body wt/d aspiring in 100 μl water from 9 dpt via nebulization) were analyzed by FACS for IL-17 and CD4 (4A). The MFI of IL-17 in CD4+ population was calculated by using CellQuest software (4B). Data were mean±SEM of four mice per group. ^ap<0.001 vs control; ^bp<0.001 vs EAE by two-samples t-tests. T helper cell 17 (Th17) cells are considered to play a more important role than Th1 cells in the disease process of EAE and MS (El-behi et al., 2010). Since aspirin nebulization enriched Tregs, aspirin nebulization was tested to determine if aspirin nebulization was capable of suppressing Th17 response in vivo in EAE mice. Th17 cells are characterized by expression of IL-17 (Shi et al., 2008). […] However, nebulization of EAE mice with aspirin led to the suppression of the CD4+IL-17+ T cell population in LNC (FIG. 4A). This is also corroborated by mean fluorescence intensity (MFI) analysis of IL-17 within the CD4+ population (FIG. […]).

Test [2] relates to Aβ. The test is described as follows: Western blot of Aβ in hippocampal extracts of FAD5× mice (6E10 and 82E1 antibodies). The test is classed as in vivo. As to conditions: 0.2 and 0.4 mg/kg body weight/d, nebulization, 30 days, immunoblot. The procedure: FIG. 6A-6D: Nebulization of very low-dose aspirin lowers cerebral plaque load in an animal model of AD. Six-month old FAD5× transgenic mice were treated with 0.2 mg/kg body wt/d and 0.4 mg/kg body wt/d aspirin via nebulization using the Buxco Inhalation Tower. After 30 days of treatment, Aβ levels were monitored in hippocampal extracts by Western blot analysis (A & C) and densitometric analysis (B & D) using 6E10 (A & B) and 82E1 (C & D) antibodies. Actin was used as loading control. Results are presented as mean±SEM of 4 mice per group. ^ap<0.001 vs non-Tg; ^bp<0.001 vs. FAD5×. To explore whether nebulization of very low-dose aspirin was capable of reducing the amyloid load in the hippocampus, the most affected brain region in AD, of FAD5× (Tg) mice, the following experiment was performed. […] The 82E1 is known to detect both soluble and fibrillar human Aβ to a similar degree.
Background: Immunoblotting shows a protein as a band on a membrane.

Test [3] has as its system CD4+Foxp3+ Tregs. Nature of the test: FACS of lymph node cells of EAE mice for Foxp3 and CD4 (Tregs). The test is classed as in vivo, female SJL/J mice. Conditions: 0.2 and 0.4 mg/kg body wt/d, nebulization from 9 dpt, 16 dpt. The procedure: FIG. 3A-3B. Nebulization of low-dose aspirin improves regulatory T cells (Tregs) in vivo in mice with adoptive transfer EAE. Lymph node cells of control, EAE (16 dpt) and low doses of aspirin-treated EAE mice (16 dpt receiving 0.2 and 0.4 mg/kg body wt/d aspirin in 100 μl water from 9 dpt via nebulization) were analyzed by fluorescence activated cell sorting (FACS) for Foxp3 and CD4 (3A). The mean fluorescence intensity (MFI) of Foxp3 in CD4+ population was calculated by using CellQuest software (3B). Data were mean±SEM of four mice per group. ^ap<0.001 vs control; ^bp<0.001 vs EAE by two-samples t-tests. Tregs are most important immunomodulatory subtype of T lymphocytes (Sakaguchi, 2005; Sakaguchi and Powrie, 2007) that are known to suppress EAE and MS. Nebulization of aspirin was further investigated to determine whether nebulization was capable of enriching Tregs in vivo in EAE mice. EAE mice receiving aspirin nebulization from 9 dpt were sacrificed on 16 dpt, followed by analysis of Tregs in lymph node cells (LNC). Foxp3 protein is currently considered as the most important marker of Tregs and by dual fluorescence-activated cell sorting (FACS) staining, we found decrease in CD4^+Foxp3^+ Tregs in LNC of EAE mice (FIG. 3A-B). However, nebulization of EAE mice with aspirin at both 0.2 and 0.4 mg/kg body wt/d doses protected CD4+Foxp3+ Tregs (FIG. 3A-B).

For test [4], the system named is FAD5× mouse model of AD. The test is described as follows: T-maze, context-dependent hippocampal behavior in FAD5× mice. The test is classed as in vivo. Conditions: 0.2 and 0.4 mg/kg body wt/d, nebulization, 30 days. The procedure:
FIG. 5A-5E. Nebulization of low-dose aspirin protects memory in the FAD5× mouse model of AD. Six to seven-month old FAD5× mice were treated with low doses (0.2 and 0.4 mg/kg body wt/d) of aspirin via nebulization. After 30 days of treatment, hippocampus-dependent spatial behavior was monitored by Barnes maze. 5A) Representative heat maps summarizing the overall activity of mice on the apparatus recorded with a Noldus camera and visualized by Ethovision XT software. 5B) Latency and 5C) number of errors made by all groups of mice. Context-dependent hippocampal behavior was analyzed by T-maze. 5D) Number of positive turns and 5E) number of negative turns of all groups of mice on an appetitive T-maze conditioning task were manually recorded. Results are presented as mean±SEM of 5 mice per group. ^ap<0.001 vs non-Tg; ^bp<0.001 vs FAD5×; ^cp<0.01 vs non-Tg; ^dp<0.05 vs FAD5×. T-maze apparatus monitors context-dependent hippocampal behavior, which may be a better index to test cognition in mice. […] However, similar to that observed with Barnes maze, nebulization of low doses of aspirin improved the performance of FAD5× mice on T maze as evident by increase in positive turns (FIG. 5D) and decrease in negative turns (FIG. 5E).

Test [5] deals with FAD5× mouse model of AD. As to conditions: oral, 2 mg/kg body wt/d; cited from earlier work.
Test [6] concerns FAD5× mouse model of AD. Nature of the test: Barnes maze, hippocampus-dependent spatial behavior in FAD5× mice. The test is classed as in vivo. Conditions: 0.2 and 0.4 mg/kg body wt/d, nebulization, 30 days. The procedure: FIG. 5A-5E. Nebulization of low-dose aspirin protects memory in the FAD5× mouse model of AD. Six to seven-month old FAD5× mice were treated with low doses (0.2 and 0.4 mg/kg body wt/d) of aspirin via nebulization. After 30 days of treatment, hippocampus-dependent spatial behavior was monitored by Barnes maze. 5A) Representative heat maps summarizing the overall activity of mice on the apparatus recorded with a Noldus camera and visualized by Ethovision XT software. 5B) Latency and 5C) number of errors made by all groups of mice. Context-dependent hippocampal behavior was analyzed by T-maze. 5D) Number of positive turns and 5E) number of negative turns of all groups of mice on an appetitive T-maze conditioning task were manually recorded. Results are presented as mean±SEM of 5 mice per group. ^ap<0.001 vs non-Tg; ^bp<0.001 vs FAD5×; ^cp<0.01 vs non-Tg; ^dp<0.05 vs FAD5×. A Buxco Inhalation Tower All-In-One Controller by DSI™ was used for air supply for nebulization (FIG. 1A). A whole body chamber was fitted with an Aeroneb® Ultrasonic Nebulizer (FIG. 1B) supplied with air from a Buxco bias flow pump. […] Hippocampus-dependent spatial learning and cognitive behavior can be reliably monitored in the Barnes maze test (Roy et al., 2013; Roy et al., 2015).

Test [7] deals with Aβ immunoreactive plaques. The test is described as follows: DAB immunostaining (6E10) of hippocampal sections, plaque load in FAD5× mice. The test is classed as in vivo. Conditions: 0.2 and 0.4 mg/kg body wt/d, nebulization, 30 days, 6E10 DAB staining. As to the method:
FIG. 7A-7B: Nebulization of very low-dose aspirin lowers cerebral plaque load in an animal model of AD. Six-month old FAD5× transgenic mice were treated with 0.2 mg/kg body wt/d and 0.4 mg/kg body wt/d aspirin via nebulization using the Buxco Inhalation Tower. After 30 days of treatment, A) diaminobenzidine (DAB) staining was performed in hippocampal sections using 6E10 antibody. B) Quantification of number of plaques in the hippocampus relative to nontransgenic. Two sections (two images per section) of each of five mice per group were used in counting. All data are represented as mean±SEM. ^ap<0.001 vs non-Tg; ^bp<0.001 vs. FAD5×. Next, in order to check the amyloid deposition in the brain, hippocampal sections were labeled with 6E10 antibody by diaminobenzidine immunostaining. Parallel to the immunoblot results, there was marked abundance of AP immunoreactive plaques in the hippocampus of Tg mice (FIG. 7A-B).

The subject of test [8] is myelin. The test is described as follows: Demyelination in spinal cord of EAE mice (MBP immunostaining, Luxol fast blue). The test is classed as in vivo, female SJL/J mice. As to conditions: 0.2 and 0.4 mg/kg body wt/d, nebulization from onset of acute phase, MBP and LFB staining. As to the method: FIG. 8A-8C: Nebulization of very low-dose aspirin protects myelin in experimental autoimmune encephalomyelitis (EAE), a mouse model of multiple sclerosis. EAE was induced in female SJL/J mice (4-6 week old) by adoptive transfer of MBP-primed T cells. Mice were treated with 0.2 mg/kg body wt/d and 0.4 mg/kg body wt/d aspirin via nebulization using the Buxco Inhalation Tower from the onset of acute phase. A) Spinal cord sections were immunostained with MBP (red). B) Sections were also stained with Luxol fast blue. Digital images were collected under bright field setting using a 40× objective. Demyelination was represented quantitatively (C). Data are expressed as the mean±SEM of five different mice per group. […]. EAE is an animal model of human demyelinating disease multiple sclerosis (MS). It was determined whether aspirin nebulization decreased demyelination in mice with EAE. To examine demyelination, spinal cord sections were stained with MBP, a major component of myelin. Moreover, spinal cord sections were also stained with luxol fast blue (LFB), which reacts with myelin. As evident from MBP immunostaining (FIG. 8A) and LFB staining (FIG. 8B), there were widespread demyelination zones in the white matter in mice with EAE.

The subject of test [9] is adoptively-transferred EAE. The test is described as follows: Adoptive-transfer EAE in female SJL/J mice: clinical symptoms, grip test, rotorod after aspirin nebulization. Conditions: 0.2 and 0.4 mg/kg body wt/d. The test is classed as in vivo. The procedure:
FIG. 2A-2C. Nebulization of low-dose aspirin reduced clinical symptoms of experimental allergic encephalomyetis (EAE) in female SJL/J mice. 2A) EAE was induced in 4-5 week old female SLJ/mice by adoptive transfer of myelin basic protein (MBP) primed T cells and from 9 days post-transfer (dpt), mice were treated with different doses of aspirin once daily for nebulization. Mice (n=6 per group in two independent experiments) were scored daily. On 16 dpt (acute phase), mice were examined for grip test (2B) and rotorod (2C). Results are presented as mean±SEM of six (6) mice per group. ^ap<0.001 vs control; ^bp<0.001 vs EAE by two-samples t-tests. Oral tablets of baby aspirin with a standard dosage of 81 mg were solubilized in hot double distilled water and cooled to room temperature. This liquid formulation was made fresh every week. In mice, an aspirin dose of 1 mg/kg body wt/d aspirin is equivalent to “Baby Aspirin” (81 mg tablet per adult). A Buxco Inhalation Tower All-In-One Controller by DSI™ was used for air supply for nebulization (FIG. 1A). A whole body chamber was fitted with an Aeroneb® Ultrasonic Nebulizer (FIG. 1B) supplied with air from a Buxco bias flow pump. Mice were allowed to nebulize aspirin at doses of […] mg/kg body wt/d (solubilized in a volume of 100 μl double-distilled water/mouse) for 3 min. Therefore, control group of mice also received 100 μl water by nebulization. Experimental allergic encephalomyelitis (EAE) is an animal model of MS, the most common human demyelinating disease. RR-EAE was induced in female SJL/J mice by adoptive transfer of myelin […] (MBP) primed T cells (FIG. 2A). As expected, induction of EAE reduced grip test (FIG. 2B) and rotorod (FIG. 2C) performances of mice. Mice were then nebulized with aspirin (0.2 and 0.4 mg/kg body wt/d in a volume of 100 μl/mouse) from 9 days post-transfer (dpt) of MBP-primed T cells. The control EAE group were treated with only water via nebulization. A dose of 0.2 mg/kg body wt/d aspirin equates to approximately 16 mg per adult. Clinical symptoms were monitored every day until 38 dpt. […]

[10] abbreviates: nebulization from 9 dpt, tested 16 dpt.

Consider `CC(=O)Oc1ccccc1C(=O)O` [aspirin, acetylsalicylic acid], for which the “CD4+IL-17+ T cell population in lymph node cells” value in test [1] is given as “suppression”. For the same molecule, in test [2], the “level of Aβ in the hippocampus, 6E10 antibody” value is recorded as “significantly reduced”. Also, the “CD4+Foxp3+ Tregs in lymph node cells” value in test [3] is reported as “protected”. Besides, in [4], the T-maze negative turns entry is “decrease” and the T-maze positive turns result is recorded as “increase”. In test [5], the memory and learning entry is “protect memory and learning”. In addition, in test [6], the Barnes maze errors result was “decreased” and the Barnes maze latency entry is “significantly improved”. Further, the “plaque load in the hippocampus” value in [7] is given as “decreasing the plaque load”. For the same molecule, in test [8], the “loss of myelin in the spinal cord (demyelination)” value is “prevented the loss of myelin”. Further, in [9] (setting [10]), the “grip test activity of EAE mice” value is listed as “significantly improved” and the “rotorod activity of EAE mice” value is on record as “significantly improved”. Also, the “clinical manifestations of adoptively-transferred EAE” value in test [9] (nebulization once daily from 9 dpt, monitored until 38 dpt) is reported as “strongly inhibited”.
